# Measurements as given in patent publication US11866405B2, “Substituted indazoles as IRAK4 inhibitors” (AstraZeneca AB, priority 2020, dated 2024).
# How the values were obtained:
# [1] = target: IRAK4 auto-phosphorylation (Homo sapiens (Human), UniProt Q9NWZ3); experiment: IRAK4 phosphorylation cell assay in IL-1β-stimulated Karpas-299 cells; assay type: cell-based; conditions: IL-1β 22.7 ng/mL, pIRAK4 (Thr345/Ser346), geometric mean of at least 2 experiments
# Summary of the method: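 Karpas-299 cells were preincubated 1 h at 37 °C with compound (10-point half-log series, top 30 μM), then stimulated 10 min with 22.7 ng/mL IL-1β. Cells were fixed and stained for pIRAK4 (Thr345/Ser346), and per-cell fluorescence was quantified by high-content imaging. IC50 values are geometric means of at least 2 experiments.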
# [2] = target: human recombinant IRAK4 protein (Homo sapiens (Human), UniProt Q9NWZ3); experiment: IRAK4 enzyme assay (mass spectrometry readout); assay type: biochemical; conditions: 3 mM ATP, 0.2 nM enzyme; geometric mean of at least n=2, * single experiment
# human recombinant IRAK4 protein, sequence (Q9NWZ3 whole entry): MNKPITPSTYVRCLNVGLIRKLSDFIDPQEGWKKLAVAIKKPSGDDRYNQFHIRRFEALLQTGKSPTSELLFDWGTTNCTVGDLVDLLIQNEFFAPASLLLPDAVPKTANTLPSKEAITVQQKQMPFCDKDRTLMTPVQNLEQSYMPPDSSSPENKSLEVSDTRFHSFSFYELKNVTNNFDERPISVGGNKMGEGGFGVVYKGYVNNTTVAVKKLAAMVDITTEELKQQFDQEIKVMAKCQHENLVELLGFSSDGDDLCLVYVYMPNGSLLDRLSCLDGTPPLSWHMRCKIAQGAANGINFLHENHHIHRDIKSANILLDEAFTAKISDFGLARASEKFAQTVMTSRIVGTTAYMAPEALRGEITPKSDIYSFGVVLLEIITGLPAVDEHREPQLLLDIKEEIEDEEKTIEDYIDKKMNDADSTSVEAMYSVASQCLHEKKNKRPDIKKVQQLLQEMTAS
# Summary of the method: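 0.2 nM IRAK4 preincubated 15 min at room temperature with compound (10-point half-log series, top 1 μM or 10 μM) in pH 7.4 Tris buffer with 3 mM ATP; 10 μM peptide substrate added, 2 h at room temperature, formic acid stop. Phospho/unphospho peptide ratio by LC-MS/MS; potency from curve fit, geometric mean of n≥2 or single run.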
# IRAK4 auto-phosphorylation, sequence (Q9NWZ3 whole entry): as above
compound,measurement,setting,value
"COc1cc2nn([C@@H]3CC[C@@H](O)C[C@H]3C)cc2cc1C(=O)Nc1cnc2cccnn12 [Example 89, 2-((1R,2R,4R)-4-hydroxy-2-methylcyclohexyl)-N-(imidazo[1,2-b]pyridazin-3-yl)-6-methoxy-2H-indazole-5-carboxamide]",IC50,[1],36 nM
same,IC50,[2],1.1 nM
